# Test results: patent publication US5849777A, “Cell differentiation induction with mevalonate and mevalonolactone derivatives” (University of New Mexico, priority 1995, dated 1998)
# Read-outs that look alike come from different tables or passages of the source.
# Columns and labels:
# [1] = system: Canine glioma cells; assay: effect on tumor cell generation time, canine glioma; format: cell-based; settings: 10 nM
# Protocol: The cells were harvested every 72 hours after the controls had reached 85% confluency. Generation time (Tg) was determined as the number of hours required for the cell population to double.
# Mean of triplicate determinations. Canine glioma cells were grown under conditions to promote exponential growth characteristics; 2×10^5cells in a T-25 flask. The cells were harvested every 72 hours after the controls had reached approximately 85% confluency. The drug was added at the initiation of culture in DMSO, the control cultures had just DMSO. The drug concentration was adjusted with DMSO so that the final concentration of DMSO was always 0.5%.
# [2] = system: Human peripheral blood leukocytes; assay: IgG production by human peripheral blood leukocytes (HPBL) in vitro; format: cell-based; settings: for Inhibitory Concentration (concentration inhibiting nonspecific IgG production below normal production): HPBL, additional 90 h culture
# Protocol: Human peripheral blood leukocytes were cultured in a standard tissue culture medium. Aliquots of these cultured cells (1,000,000 cells/ml medium) were cultured for 6 hours, and the specified amount of Formula II compound was added; the cells were then cultured for an additional 90 hours. Sheep red blood cells (SRBC) conditioned with class-specific (IgG) goat anti-human antiserum (1:400) for 2 hours; then guinea pig complement (2%) for 2 hours were conjugated to Protein A as described in detail in Radioimaging and Radioimmunotherapy, Eds. S. W. Burchiel and B. A. Rhodes, Elsevier Science Publishing; New York, 1983, pp. 125-127, incorporated herein by reference.
# 1. Concentration inhibiting nonspecific IgG production below normal production.
# [3] = system: Canine glioma cells; assay: inhibition of adherence (ADH50%); format: cell-based; settings: Canis lupus familiaris, Glioma cell
# Protocol: (§1) Cytotoxicity was determined as a function of simple survival (T50 %), adherence (ADH50 %) and thymidine incorporation (I50%) of the cells.
# (§2) Estimates of the 50% inhibitory concentrations of the various drugs tested on simple survival (T50%) and adherence (ADH50%) for canine glioma cells.
# [4] = biological target: T1, rat liver HMG-COA reductase (Rattus norvegicus, UniProt P51639); assay: inhibition of rat liver HMG-CoA reductase activity; format: biochemical
# T1 construct: rat liver HMG-COA reductase activity; from tissue; host or cells: rat liver
# T1 sequence (P51639 1-887): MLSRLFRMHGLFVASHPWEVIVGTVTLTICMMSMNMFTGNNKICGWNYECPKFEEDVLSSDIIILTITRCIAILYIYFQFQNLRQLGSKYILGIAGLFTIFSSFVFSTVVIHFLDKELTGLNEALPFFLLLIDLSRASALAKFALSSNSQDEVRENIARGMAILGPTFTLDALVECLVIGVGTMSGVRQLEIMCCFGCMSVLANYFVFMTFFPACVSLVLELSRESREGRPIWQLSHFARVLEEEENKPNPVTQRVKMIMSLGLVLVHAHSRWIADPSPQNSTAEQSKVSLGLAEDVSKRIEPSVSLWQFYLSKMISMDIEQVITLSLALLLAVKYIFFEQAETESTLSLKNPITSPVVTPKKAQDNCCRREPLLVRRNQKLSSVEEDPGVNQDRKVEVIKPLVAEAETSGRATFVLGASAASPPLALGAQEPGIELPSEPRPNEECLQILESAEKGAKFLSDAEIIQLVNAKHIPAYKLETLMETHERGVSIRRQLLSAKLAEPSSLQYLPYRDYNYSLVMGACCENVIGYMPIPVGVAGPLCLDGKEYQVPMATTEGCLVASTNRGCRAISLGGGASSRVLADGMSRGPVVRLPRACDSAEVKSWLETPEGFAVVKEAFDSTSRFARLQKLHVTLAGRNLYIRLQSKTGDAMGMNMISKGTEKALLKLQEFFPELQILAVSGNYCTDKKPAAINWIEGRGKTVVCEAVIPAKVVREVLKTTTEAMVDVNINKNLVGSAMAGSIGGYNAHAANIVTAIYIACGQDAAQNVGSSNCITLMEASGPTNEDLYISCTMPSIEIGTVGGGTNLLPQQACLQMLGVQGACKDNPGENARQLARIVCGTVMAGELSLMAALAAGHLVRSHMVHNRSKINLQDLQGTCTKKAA
# Excerpt: While a number of the compounds of the Formula I are known HMG-CoA reductase inhibitors, there is no apparent correlation between HMG-CoA reductase inhibitory activity and promotion of differentiation activity according to the invention. […] Accordingly, useful guidelines for selecting compounds having optimal differentiation-promoting activity according to the invention broadly comprise selecting compounds of the Formula I having the specified stereochemical configuration and an in vitro immunological activity as set forth in the in vitro assay of Example II, of at least about 3-fold.
# [5] = system: Canine glioma cells; assay: cytotoxicity as simple survival (T50%); format: cell-based; settings: Canis lupus familiaris, Glioma cell, read-out: T 50%
# Protocol: as §1, §2
# [6] = system: Canine glioma cells; assay: inhibition of thymidine incorporation (I50%); format: cell-based; settings: Canis lupus familiaris, Glioma cell
# Protocol: as §1
# Estimates of the I50% of the various drugs tested on thymidine incorporation of canine glioma cells in culture.
# [7] = system: human colon carcinoma cell line (LS-174); assay: effect on tumor cell generation time, human colon carcinoma; format: cell-based
# Protocol: The procedure of Example VA, above, was repeated except a human colon carcinoma cell line (LS-174) was used instead of the canine glioma cell line.
# Mean of triplicate determinations. LS-174 cells (human colon carcinoma) were grown under conditions to promote exponential growth characteristics; 2×10^5 cells in a T-25 flask. The cells were harvested every 72 hours after the controls had reached approximately 85% confluency. The drug was added at the initiation of culture in DMSO, the control cultures had just DMSO. The drug concentration was adjusted with DMSO so that the final concentration of DMSO was always 0.5%.
# [8] = system: CG tumor; assay: chromium-release cell-mediated lympholysis (CML) vs CG tumor; format: in vivo, dog
# Excerpt: Cellular immune response reflected the results reported in III, 1 above. […] This also is in the absence of CG antigen exposure. […] Thus both cellular and humoral immunity appear to be modulatable in the absence of antigen by the compounds of the instant invention.
# [9] = system: CG (canine glioma) cells; assay: tumor-specific antibody production in vivo (anti-CG IgG titer); parameters: species or system dog
# Excerpt: Titer of CG-specific antibody was compared to control [no administration of compound IIa' and no implantation of CG (canine glioma) cells]. […] This increase in titer continued with time until tumor regression was noted by independent measurement (NMR evaluation, below).
# The results are particularly striking as the experimental tumor (brain glioma) is generally considered to enjoy a privileged position beyond the blood/brain barrier, substantially beyond the reach of the humoral immune system. Experimental protocols are described in detail below (FIGS. 7-9, Example VII).
# [10] = system: canine glioma cells; assay: in vivo tumor inhibition: nude rat model; parameters: species or system Nude Rats (canine glioma cells)
# Protocol: Fifty four Nude Rats (Harlan) were injected in the right flank with 5×10^6 canine glioma cells. Animals at the time of injection were between 52 and 63 days old and weighed approximately 200 g. The rats were divided into 7 groups, each group having a total number of 7 rats except for the control group, which totalled 12 animals. Compound IIc' was administered to the experimental animals at one of the following dose for each experimental group: 100 μg/kg, 10 μg/kg, 1 μg/kg, 0.1 μg/kg, 0.01 μg/kg and 0.001 μg/kg (phosphate buffer saline, M, W, F, I.P.). The control animals were injected with PBS (phosphate buffered saline) only. The volume of each injection was 100 μl. The injections of drug were simultaneously begun with injection of tumor cells. The animals were injected with the appropriate dosage of drug (1 ng/kg to […]) by I.P. injection and tumor length, width and depth were measured using caliphers each Monday, Wednesday and Friday (M, W, F) morning for approximately 9 weeks. Each point on the graphs represents the total of all rats for each group. […] The data were normalized for the greater number of control animals by multiplying the total tumor volume for the control animals by 7/12.
# [11] = read-out: IC50 (concentration for 50% inhibition of rat liver HMG-COA reductase activity), Table I
smiles,measurement,setting,value
CC(C)c1nc(-c2ccccc2)n(-c2ccc(F)cc2)c1/C=C/[C@H](O)C[C@@H](O)CC(=O)O (relative stereo) [Compound IIe'],contact inhibition as the cells approached confluency,[1],showed evidence of contact inhibition
same,% CHANGE (Tg),[1]; 72 × 2 h,129%
same,Tg,[1]; 72 × 2 h,24.0 h
same,% CHANGE (Tg),[1]; 72 × 3 h,180%
same,Tg,"[1]; 72 × 3 h (three passages), control 18.6 h",33.4 h
same,% CHANGE (Tg),[1]; 72 × 4 h,155%
same,Tg,[1]; 72 × 4 h,28.9 h
same,% CHANGE (Tg),[1]; 72 h,136%
same,Tg,[1]; 72 h,25.3 h
same,slowing of the growth rate,[1]; three passages,1.8 fold
same,Stimulation of IgG Production,[2]; 1&100 nM,1990%
same,activation at 0.0001 µM,"[2]; Homo sapiens, Leukocyte, 90 h, 100 pM, read-out: Stimulation of IgG Production",< 350%
same,IC50,[3]; 24 h exposure,75 nM
same,IC50,[3]; 72 h exposure,70 nM
same,IC50,[3]; 96 h exposure,75 nM
same,IC50,"[4]; Example IV, read-out: IC50 (HMG-CoA reductase)",3 nM
same,IC50,[4]; [11],3 nM
same,IC50,[5]; 24 h exposure,750 nM
same,IC50,[5]; 72 h exposure,800 nM
same,IC50,[5]; 96 h exposure,900 nM
same,IC50,"[6]; 24 h exposure, read-out: I50%",50 nM
same,IC50,"[6]; 48 h exposure, read-out: I50%",75 nM
same,IC50,"[6]; 72 h exposure, read-out: I50%",80 nM
same,IC50,"[6]; 96 h exposure, read-out: I50%",50 nM
same,IC50,"[6]; Table V, all exposure times, read-out: I50% (thymidine incorporation into DNA)",50 to 80 nM
same,% CHANGE (Tg),"[7]; 10 nM, 72 × 2 h",400%
same,Tg,"[7]; 10 nM, 72 × 2 h",106.2 h
same,% CHANGE (Tg),"[7]; 10 nM, 72 × 3 h",416%
same,Tg,"[7]; 10 nM, 72 × 3 h (three passages), control 26.5 h",110.3 h
same,% CHANGE (Tg),"[7]; 10 nM, 72 × 4 h",414%
same,Tg,"[7]; 10 nM, 72 × 4 h",109.6 h
same,% CHANGE (Tg),"[7]; 10 nM, 72 h",320%
same,Tg,"[7]; 10 nM, 72 h",84.9 h
same,prolongation of generation time,"[7]; 10 nM, three passages",4.16 fold
same,generation time after drug withdrawn,"[7]; drug withdrawn, two passages",returned to control levels
CC(C)c1nc(-c2ccccc2)n(-c2ccc(F)cc2)c1/C=C/[C@H](O)C[C@@H](O)CC(=O)O [Compound IIc'],"slope ""M"" (LINEAR REGRESSION OF TOXICITY), Y = ""M""X + B","[8]; December 14, 1987",0.05
same,"slope ""M"" (LINEAR REGRESSION OF TOXICITY), Y = ""M""X + B","[8]; February 9, 1988",0.35
same,"slope ""M"" (LINEAR REGRESSION OF TOXICITY), Y = ""M""X + B","[8]; February 17, 1988",0.75
same,"slope ""M"" (LINEAR REGRESSION OF TOXICITY), Y = ""M""X + B","[8]; March 31, 1988",0.05
same,optimal dose in vitro (immune stimulation),[2]; HPBL assay,100 pM
same,Inhibitory Concentration (concentration inhibiting nonspecific IgG production below normal production),[2],none found
same,immune stimulant (in words),[2]; see Examples above,potent immune stimulant
same,IC50,[4]; [11],22 nM
same,IC-50% TITER (ANTI-CG),"[9]; treatment 2+ months, tumor regressed",BASELINE VALUES
same,"optimal dose in vivo, equivalent concentration with uniform distribution",[10]; 100 ng/kg,250 pM
same,most effective dosage for inhibition of canine glioma cells,"[10]; I.P., M, W, F, approx. 9 weeks (FIG. 3)",100 ng/kg
same,cytostatic activity,"[10]; higher doses, 10 and 100 μg/kg I.P.",Little or no cytostatic activity
same,cytostatic activity,"[10]; lowest dose, 1 ng/kg I.P.",Little or no cytostatic activity
CC(C)c1nc(-c2ccccc2)n(-c2ccc(F)cc2)c1/C=C/[C@H](O)C[C@H](O)CC(=O)O [IIa],CML reactivity,"[8]; after 5 weeks, tumor totally regressed",returned to baseline
same,CG-specific CML,"[8]; after 14 days of administration, I.P., M, W, F",only baseline levels of CG-specific CML were present
same,CML reactivity,[8]; after a few days of exposure to the CG tumor implant,large increase in the CML reactivity
same,CML,"[8]; after an additional 2 months, absence of CG antigen exposure",significant increase in CML
same,Inhibitory Concentration (concentration inhibiting nonspecific IgG production below normal production),[2],none found
same,IC50,[4]; Table I,3150 nM
same,CG-specific antibody,"[9]; at tumor regression, within a few days",reverted to baseline control levels
same,CG-specific antibody (IgG) production,[9]; following implantation of the CG tumor cells,increased significantly
same,titers of antibody over the control antibody titer,[9]; in the absence of antigen,titers of antibody increased over the control antibody titer significantly
